Measurements published in patent publication US20110195929A1, “COMPOUNDS FOR THE TREATMENT OF FLAVIVIRAL INFECTIONS” (SUMMIT CORPORATION PLC, priority 2008, published 2011).
Where two headings read alike, the source gives them in different places.

Tested on: HCV
Assay: Cell-based HCV infection NS3 protease FRET assay in DMSO-Huh7 cells; also: test concentration or dose not given here
Set-up: species or system hepatitis C virus (HCV)
[1] = DMSO-Huh7 cells infected with HCV at 0.05 ffu/cell, HCV NS3 protein levels by FRET, day 6 p.i.

CCCCCCCCCN1C[C@@H]2OC(C)(C)O[C@@H]2[C@@H]1CNC(C)=O [Compound 630, N-(((3aR,4S,6aS)-2,2-dimethyl-5-nonyltetrahydro-3aH-[1,3]dioxolo[4,5-c]pyrrol-4-yl)methyl)acetamide] was tested, and the Ave % inhibition [1] was “++ (++: 20-39%)”.

With CC1(C)O[C@H]2[C@H](CN(Cc3ccc(-c4ccccc4)cc3)[C@H]2CNC(=O)C(F)(F)F)O1 [Compound 632, N-(((3aR,4S,6aS)-5-(biphenyl-4-ylmethyl)-2,2-dimethyltetrahydro-3aH-[1,3]dioxolo[4,5-c]pyrrol-4-yl)methyl)-2,2,2-trifluoroacetamide] the Ave % inhibition [1] was “++ (++: 20-39%)”.

For O=C(NC[C@H]1[C@@H](O)[C@@H](O)CN1CCN1CCOCC1)c1ccccc1 [Compound 633, N-(((2S,3R,4S)-3,4-dihydroxy-1-(2-morpholinoethyl)pyrrolidin-2-yl)methyl)benzamide], the Ave % inhibition [1] was “+++ (+++: 40-59%)”.

For O=C(NC[C@@H]1[C@@H](O)[C@@H](O)CN1Cc1ccc(-c2ccccc2)cc1)c1ccccc1 [Compound 649, N-(((2R,3R,4S)-1-(biphenyl-4-ylmethyl)-3,4-dihydroxypyrrolidin-2-yl)methyl)benzamide], the Ave % inhibition [1] was “+++ (+++: 40-59%)”.

In the case of CC1(C)O[C@H]2[C@H](CN(Cc3ccccc3)[C@H]2CNC(=O)c2ccc(-c3ccccc3)cc2)O1 [Compound 652, N-(((3aR,4S,6aS)-5-benzyl-2,2-dimethyltetrahydro-3aH-[1,3]dioxolo[4,5-c]pyrrol-4-yl)methyl)biphenyl-4-carboxamide], the Ave % inhibition [1] was “+++++ (+++++: ≧80%)”.

In the case of O=C(NC[C@H]1[C@@H](O)[C@@H](O)CN1CCCCCCCCCO)c1ccc(-c2ccccc2)cc1 [Compound 660, N-(((2S,3R,4S)-3,4-dihydroxy-1-(9-hydroxynonyl)pyrrolidin-2-yl)methyl)biphenyl-4-carboxamide], the Ave % inhibition [1] was “+++ (+++: 40-59%)”.

In the case of CN(C)CCN1C[C@H](O)[C@H](O)[C@@H]1CNC(=O)c1ccccc1 [Compound 667, N-(((2S,3R,4S)-1-(2-(dimethylamino)ethyl)-3,4-dihydroxypyrrolidin-2-yl)methyl)benzamide], the Ave % inhibition [1] was “++ (++: 20-39%)”.

In the case of CCCC(=O)NC[C@@H]1[C@@H](O)[C@@H](O)CN1Cc1ccccc1 [Compound 669, N-(((2R,3R,4S)-1-benzyl-3,4-dihydroxypyrrolidin-2-yl)methyl)butyramide], the Ave % inhibition [1] was “++ (++: 20-39%)”.

O=C(NC[C@@H]1NC[C@H](O)[C@@H]1O)c1ccc(-c2ccccc2)cc1 [Compound 670, N-(((2S,3R,4S)-3,4-dihydroxypyrrolidin-2-yl)methyl)biphenyl-4-carboxamide] was tested, and the Ave % inhibition [1] was “+++++ (+++++: ≧80%)”.

With CC1(C)O[C@H]2[C@@H](CN=[N+]=[N-])NC[C@H]2O1 [Compound 671, (3aS,4R,6aR)-4-(azidomethyl)-2,2-dimethyltetrahydro-3aH-[1,3]dioxolo[4,5-c]pyrrole] the Ave % inhibition was “++ (++: 20-39%)”.

In the case of O=C(NC[C@@H]1[C@@H](O)[C@@H](O)CN1Cc1ccccc1)c1ccc(-c2ccccc2)cc1 [Compound 673, N-(((2R,3R,4S)-1-benzyl-3,4-dihydroxypyrrolidin-2-yl)methyl)biphenyl-4-carboxamide], the Ave % inhibition [1] was “++ (++: 20-39%)”.

O=C(NC[C@@H]1NC[C@H](O)[C@@H]1O)C(F)(F)F [Compound 674, N-(((2S,3R,4S)-3,4-dihydroxypyrrolidin-2-yl)methyl)-2,2,2-trifluoroacetamide] was tested, and the Ave % inhibition [1] was “++ (++: 20-39%)”.

In the case of CC1(C)O[C@H]2[C@H](CN(CCN3CCOCC3)[C@H]2CNC(=O)C(F)(F)F)O1 [Compound 675, N-(((3aR,4S,6aS)-2,2-dimethyl-5-(2-morpholinoethyl)tetrahydro-3aH-[1,3]dioxolo[4,5-c]pyrrol-4-yl)methyl)-2,2,2-trifluoroacetamid], the Ave % inhibition [1] was “++ (++: 20-39%)”.

In the case of CCCCN1C[C@@H]2OC(C)(C)O[C@@H]2[C@@H]1CNC(=O)C(F)(F)F [Compound 676, N-(((3aR,4S,6aS)-5-butyl-2,2-dimethyltetrahydro-3aH-[1,3]dioxolo[4,5-c]pyrrol-4-yl)methyl)-2,2,2-trifluoroacetamide], the Ave % inhibition [1] was “++ (++: 20-39%)”.

CC1(C)O[C@H]2[C@H](CN(CCN3CCCCC3)[C@H]2CNC(=O)C(F)(F)F)O1 [Compound 677, N-(((3aR,4S,6aS)-2,2-dimethyl-5-(2-(piperidin-1-yl)ethyl)tetrahydro-3aH-[1,3]dioxolo[4,5-c]pyrrol-4-yl)methyl)-2,2,2-trifluoroacetamide] was tested, and the Ave % inhibition [1] was “++ (++: 20-39%)”.

For CN(C)CCN1C[C@@H]2OC(C)(C)O[C@@H]2[C@@H]1CNC(=O)C(F)(F)F [Compound 678, N-(((3aR,4S,6aS)-5-(2-(dimethylamino)ethyl)-2,2-dimethyltetrahydro-3aH-[1,3]dioxolo[4,5-c]pyrrol-4-yl)methyl)-2,2,2-trifluoroacetamide], the Ave % inhibition [1] was “++ (++: 20-39%)”.

For NC[C@H]1[C@@H](O)[C@@H](O)CN1Cc1ccc(-c2ccccc2)cc1 [Compound 686, (2S,3R,4S)-2-(aminomethyl)-1-(biphenyl-4-ylmethyl)pyrrolidine-3,4-diol], the Ave % inhibition [1] was “+++ (+++: 40-59%)”.

With COCCOCCN1C[C@H](O)[C@H](O)[C@@H]1CNC(=O)c1ccc(-c2ccccc2)cc1 [Compound 688, N-(((2S,3R,4S)-3,4-dihydroxy-1-(2-(2-methoxyethoxy)ethyl)pyrrolidin-2-yl)methyl)biphenyl-4-carboxamide] the Ave % inhibition [1] was “+++ (+++: 40-59%)”.

With CCCCN1C[C@H](O)[C@H](O)[C@H]1CNC(=O)CCC [Compound 689, N-(((2R,3R,4S)-1-butyl-3,4-dihydroxypyrrolidin-2-yl)methyl)butyramide] the Ave % inhibition [1] was “+ (+: ≦19%)”.

O[C@H]([C@H]1[C@@H](O)[C@H](O)CN1Cc1ccccc1)[C@H](O)CNCc1ccccc1 [Compound 698, (2S,3R,4R)-1-benzyl-2-((1R,2R)-3-(benzylamino)-1,2-dihydroxypropyl)pyrrolidine-3,4-diol] was tested, and the Ave % inhibition [1] was “++ (++: 20-39%)”.

With O[C@@H]1[C@H]([C@@H](O)CNCc2ccccc2)N(Cc2ccccc2)C[C@@H]1O [Compound 700, (2S,3R,4S)-1-benzyl-2-((S)-2-(benzylamino)-1-hydroxyethyl)pyrrolidine-3,4-diol] the Ave % inhibition [1] was “++ (++: 20-39%)”.

With O=C(NC[C@H]1[C@@H](O)[C@@H](O)CN1CCN1CCOCC1)c1ccc(-c2ccccc2)cc1 [Compound 702, N-(((2S,3R,4S)-3,4-dihydroxy-1-(2-morpholinoethyl)pyrrolidin-2-yl)methyl)biphenyl-4-carboxamide] the Ave % inhibition [1] was “++++ (++++: 60-79%)”.

OC[C@@H](O)[C@H](O)[C@H]1[C@@H](O)[C@H](O)CN1Cc1ccccc1 [Compound 703, (1R,2R)-1-((2R,3R,4R)-1-benzyl-3,4-dihydroxypyrrolidin-2-yl)propane-1,2,3-triol] was tested, and the Ave % inhibition [1] was “++ (++: 20-39%)”.

CC1(C)O[C@H]([C@H]2[C@@H](O)[C@H](O)CN2Cc2ccccc2)[C@@H](CNCc2ccccc2)O1 [Compound 704, (2R,3R,4R)-1-benzyl-2-((4R,5R)-5-((benzylamino)methyl)-2,2-dimethyl-1,3-dioxolan-4-yl)pyrrolidine-3,4-diol] was tested, and the Ave % inhibition [1] was “++++ (++++: 60-79%)”.

In the case of COC(=O)[C@H]1C[C@H](O)CN1C(=O)OC(C)(C)C [Compound 713, (2R,4S)-1-tert-butyl 2-methyl 4-hydroxypyrrolidine-1,2-dicarboxylate], the Ave % inhibition [1] was “++ (++: 20-39%)”.

[N-]=[N+]=N[C@@H]1C[C@H](CO)N(CCCO)C1 [Compound 717, ′3-((2R,4R)-4-azido-2-(hydroxymethyl)pyrrolidin-1-yl)propan-1-ol] was tested, and the Ave % inhibition [1] was “+++++ (+++++: ≧80%)”.

In the case of [N-]=[N+]=N[C@@H]1CN(CCO)[C@H](CO)[C@H]1O [Compound 721, (2R,3R,4R)-4-azido-1-(2-hydroxyethyl)-2-(hydroxymethyl)pyrrolidin-3-ol], the Ave % inhibition [1] was “++ (++: 20-39%)”.

With CCCCCCCCCN1C[C@@H](O)[C@@H](O)[C@H](NC(C)=O)C1 [Compound 731, N-((3R,4S,5R)-4,5-dihydroxy-1-nonylpiperidin-3-yl)acetamide] the Ave % inhibition [1] was “++ (++: 20-39%)”.

For CCCCCCCCCN1C[C@@H](O)[C@H](O)[C@H](O)[C@@H](O)C1 [Compound 736, (3R,4S,5R,6S)-1-nonylazepane-3,4,5,6-tetraol], the Ave % inhibition [1] was “+++ (+++: 40-59%)”.

OC1CN(Cc2ccc(-c3ccccc3)cc2)C1 [Compound 748, 1-(biphenyl-4-ylmethyl)azetidin-3-ol] was tested, and the Ave % inhibition [1] was “++++ (++++: 60-79%)”.

In the case of CCN1C[C@H](O)[C@@H](O)[C@H](O)[C@H]1CO [Compound 756, (2R,3R,4R,5S)-1-ethyl-2-(hydroxymethyl)piperidine-3,4,5-triol], the Ave % inhibition was “+ (+: ≦19%)”.

In the case of O[C@H]1[C@H](O)[C@H](O)CN(Cc2ccc(-c3ccccc3)cc2)C[C@H]1O [Compound 762, (3R,4R,5R,6R)-1-(biphenyl-4-ylmethyl)azepane-3,4,5,6-tetraol], the Ave % inhibition [1] was “+++ (+++: 40-59%)”.

In the case of [N-]=[N+]=N[C@@H]1CN[C@@H](CO)C1 [Compound 767, ((2R,4S)-4-azidopyrrolidin-2-yl)methanol], the Ave % inhibition [1] was “++++ (++++: 60-79%)”.

In the case of CCCCCCCCCN1C[C@H](O)[C@@H](O)[C@H](NC(C)=O)C1 [Compound 774, N-((3R,4S,5S)-4,5-dihydroxy-1-nonylpiperidin-3-yl)acetamide], the Ave % inhibition [1] was “+ (+: ≦19%)”.

With CCCCCCCCCN1C[C@H](O)C(NC(C)=O)[C@@H](O)C1 [Compound 777, N-((3S,5S)-3,5-dihydroxy-1-nonylpiperidin-4-yl)acetamide] the Ave % inhibition [1] was “+++ (+++: 40-59%)”.

For CCCCCCCCCN1C[C@@H](O)[C@H](O)[C@@H](NC(C)=O)C1 [Compound 780, N-((3S,4R,5R)-4,5-dihydroxy-1-nonylpiperidin-3-yl)acetamide], the Ave % inhibition [1] was “++ (++: 20-39%)”.

In the case of CCCCCCCCCN1C[C@@H](O)C(NC(C)=O)[C@H](O)C1 [Compound 783, N-((3R,5R)-3,5-dihydroxy-1-nonylpiperidin-4-yl)acetamide], the Ave % inhibition [1] was “+++ (+++: 40-59%)”.

CCCCCCCCCN1C[C@@H](O)[C@H](NC(C)=O)[C@@H](O)C1 [Compound 789, N-((3S,4r,5R)-3,5-dihydroxy-1-nonylpiperidin-4-yl)acetamide] was tested, and the Ave % inhibition [1] was “+++ (+++: 40-59%)”.
